# Results published in patent US9575064B2, “Methods relating to testing for lysosomal storage disorders” (PerkinElmer Health Sciences, Inc., priority 2014, dated 2017).
# What was measured:
# [1] = cited from earlier work
# [2] = biological target: T1, galactocerebrosidase (GALC) (Homo sapiens, UniProt P54803); conditions: Zhang et al; Li et al; cited from earlier work
# T1 sequence (P54803 43-685): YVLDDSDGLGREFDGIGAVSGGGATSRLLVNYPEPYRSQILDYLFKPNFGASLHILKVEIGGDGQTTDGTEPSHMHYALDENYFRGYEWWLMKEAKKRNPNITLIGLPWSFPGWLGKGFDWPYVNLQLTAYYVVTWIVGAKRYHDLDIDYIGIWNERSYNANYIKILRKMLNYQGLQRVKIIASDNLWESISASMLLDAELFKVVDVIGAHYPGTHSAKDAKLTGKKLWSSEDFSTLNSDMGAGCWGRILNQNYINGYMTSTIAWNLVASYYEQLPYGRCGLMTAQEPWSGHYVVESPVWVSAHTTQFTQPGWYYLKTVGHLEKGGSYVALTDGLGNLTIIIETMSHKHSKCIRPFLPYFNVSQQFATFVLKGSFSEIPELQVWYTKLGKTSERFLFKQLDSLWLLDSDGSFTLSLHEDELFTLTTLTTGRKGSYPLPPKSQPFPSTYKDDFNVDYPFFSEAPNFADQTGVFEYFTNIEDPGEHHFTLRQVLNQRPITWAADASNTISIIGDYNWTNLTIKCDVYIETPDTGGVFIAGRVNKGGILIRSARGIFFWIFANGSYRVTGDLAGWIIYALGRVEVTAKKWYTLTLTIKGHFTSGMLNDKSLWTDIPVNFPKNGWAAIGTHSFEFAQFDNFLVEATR
# [3] = biological target: T2, acid β-glucocerebrosidase (ABG) (Homo sapiens, UniProt P04062); experiment: 6-plex DBS enzyme activity assay (FIA-MS/MS) with and without sodium oleate: ABG; format: biochemical
# T2 construct: from tissue; host or cells: human dried blood spots (CDC control DBS: pooled cord blood, leukocyte-reduced adult blood)
# T2 sequence (P04062 40-536): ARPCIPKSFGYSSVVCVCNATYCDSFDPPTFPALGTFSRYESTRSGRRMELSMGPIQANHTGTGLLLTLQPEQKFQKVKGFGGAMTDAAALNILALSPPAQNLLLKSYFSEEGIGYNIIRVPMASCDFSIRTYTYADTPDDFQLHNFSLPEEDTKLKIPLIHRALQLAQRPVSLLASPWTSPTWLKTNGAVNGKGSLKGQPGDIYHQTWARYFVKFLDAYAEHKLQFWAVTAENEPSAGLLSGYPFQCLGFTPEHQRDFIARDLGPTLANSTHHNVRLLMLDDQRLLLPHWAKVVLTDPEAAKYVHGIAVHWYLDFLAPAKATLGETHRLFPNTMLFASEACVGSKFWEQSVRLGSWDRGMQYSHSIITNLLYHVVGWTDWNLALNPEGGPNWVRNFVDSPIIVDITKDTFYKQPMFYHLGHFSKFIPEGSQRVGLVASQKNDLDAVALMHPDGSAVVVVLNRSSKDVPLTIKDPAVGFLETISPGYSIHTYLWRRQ
# [4] = biological target: T3, acid sphingomylenase (ASM) (Homo sapiens, UniProt P17405); experiment: 6-plex DBS enzyme activity assay (FIA-MS/MS) with and without sodium oleate: ASM; format: biochemical
# T3 construct: from tissue; host or cells: human dried blood spots (CDC control DBS: pooled cord blood, leukocyte-reduced adult blood)
# T3 sequence (P17405 47-631): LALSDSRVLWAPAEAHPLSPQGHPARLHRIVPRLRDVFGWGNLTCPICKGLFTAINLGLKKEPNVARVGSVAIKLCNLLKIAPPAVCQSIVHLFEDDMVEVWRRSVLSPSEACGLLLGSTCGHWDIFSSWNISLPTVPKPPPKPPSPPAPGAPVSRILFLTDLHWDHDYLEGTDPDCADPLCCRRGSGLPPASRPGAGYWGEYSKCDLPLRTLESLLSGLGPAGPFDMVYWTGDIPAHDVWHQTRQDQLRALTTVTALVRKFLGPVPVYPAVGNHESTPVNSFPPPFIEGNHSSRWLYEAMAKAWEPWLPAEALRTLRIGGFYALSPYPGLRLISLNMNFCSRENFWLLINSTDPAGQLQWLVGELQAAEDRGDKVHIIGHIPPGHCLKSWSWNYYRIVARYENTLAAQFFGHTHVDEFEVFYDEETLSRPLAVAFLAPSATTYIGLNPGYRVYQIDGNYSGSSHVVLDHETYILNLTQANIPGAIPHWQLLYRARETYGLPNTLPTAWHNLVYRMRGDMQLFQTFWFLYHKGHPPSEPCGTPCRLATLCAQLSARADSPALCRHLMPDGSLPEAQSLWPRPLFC
# α-L-iduronidase (IDUA) = biological target: T4, α-L-iduronidase (IDUA) (Homo sapiens, UniProt P35475); experiment: 6-plex DBS enzyme activity assay (FIA-MS/MS) with and without sodium oleate: IDUA; format: biochemical
# T4 construct: from tissue; host or cells: human dried blood spots (CDC control DBS: pooled cord blood, leukocyte-reduced adult blood)
# T4 sequence (P35475 28-653): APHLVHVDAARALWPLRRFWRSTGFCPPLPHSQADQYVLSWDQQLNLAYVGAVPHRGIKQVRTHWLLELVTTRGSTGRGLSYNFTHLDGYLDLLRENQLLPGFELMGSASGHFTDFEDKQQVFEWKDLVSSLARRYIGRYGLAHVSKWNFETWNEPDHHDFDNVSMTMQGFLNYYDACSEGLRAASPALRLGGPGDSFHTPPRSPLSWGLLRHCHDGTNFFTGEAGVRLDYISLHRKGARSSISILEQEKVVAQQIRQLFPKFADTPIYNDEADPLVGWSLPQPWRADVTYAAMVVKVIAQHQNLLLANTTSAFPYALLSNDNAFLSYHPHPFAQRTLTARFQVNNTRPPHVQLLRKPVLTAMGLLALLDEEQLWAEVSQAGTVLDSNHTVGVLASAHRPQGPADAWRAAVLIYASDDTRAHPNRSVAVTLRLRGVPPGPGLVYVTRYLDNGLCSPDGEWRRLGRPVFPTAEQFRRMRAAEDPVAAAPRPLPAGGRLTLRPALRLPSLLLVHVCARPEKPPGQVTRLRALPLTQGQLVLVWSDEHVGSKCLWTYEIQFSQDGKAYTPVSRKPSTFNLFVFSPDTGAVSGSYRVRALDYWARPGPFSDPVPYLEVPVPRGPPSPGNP
# [5] = biological target: T5, acid α-galactosidase A (GLA) (Homo sapiens, UniProt P06280); experiment: 6-plex DBS enzyme activity assay (FIA-MS/MS) with and without sodium oleate: GLA; format: biochemical
# T5 construct: from tissue; host or cells: human dried blood spots (CDC control DBS: pooled cord blood, leukocyte-reduced adult blood)
# T5 sequence (P06280 32-429): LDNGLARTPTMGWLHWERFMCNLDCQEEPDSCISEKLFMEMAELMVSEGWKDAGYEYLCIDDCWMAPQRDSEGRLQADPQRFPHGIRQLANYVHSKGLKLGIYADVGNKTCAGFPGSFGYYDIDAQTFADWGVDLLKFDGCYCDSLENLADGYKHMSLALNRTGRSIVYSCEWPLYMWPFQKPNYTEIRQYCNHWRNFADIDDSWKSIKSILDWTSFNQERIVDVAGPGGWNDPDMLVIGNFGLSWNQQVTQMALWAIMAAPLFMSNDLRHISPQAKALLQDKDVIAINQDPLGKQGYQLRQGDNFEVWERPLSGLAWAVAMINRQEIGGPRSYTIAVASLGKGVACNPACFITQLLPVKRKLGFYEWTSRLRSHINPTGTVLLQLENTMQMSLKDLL
# [6] = biological target: T1, galactocerebrosidase (GALC); experiment: 6-plex DBS enzyme activity assay (FIA-MS/MS) with and without sodium oleate: GALC; format: biochemical; set-up: from tissue; host or cells: human dried blood spots (CDC control DBS: pooled cord blood, leukocyte-reduced adult blood)
# acid α-glucosidase (GAA) = biological target: T6, acid α-glucosidase (GAA) (Homo sapiens, UniProt P10253); experiment: 6-plex DBS enzyme activity assay (FIA-MS/MS) with and without sodium oleate: GAA; format: biochemical
# T6 construct: from tissue; host or cells: human dried blood spots (CDC control DBS: pooled cord blood, leukocyte-reduced adult blood)
# [7] = CDC High Control DBS, with sodium oleate
# [8] = CDC High Control DBS, with vs without sodium oleate
# [9] = CDC Low Control DBS, with sodium oleate
# [10] = CDC Low Control DBS, with vs without sodium oleate
# [11] = CDC Medium Control DBS, with sodium oleate
# [12] = CDC Medium Control DBS, with vs without sodium oleate
# [13] = Med/Low Control DBS ratio, with vs without sodium oleate
# [14] = addition of sodium oleate, stated for the ceramides
# [15] = two assays differing only by addition or lack of sodium oleate
smiles,measurement,setting,value
CCCCCCCC/C=C\CCCCCCCC(=O)O [oleic acid],solubility in aqueous buffers,[1],very difficult to dissolve
same,effect on GALC enzyme,[2],enhancer
CCCCCCCC/C=C\CCCCCCCC(=O)[O-].[Na+] [sodium oleate],Enzyme Activity ABG,[3]; [7],11.46 µmol/L/h
same,Sodium oleate gain ABG,[3]; [8],162%
same,Enzyme Activity ABG,[3]; [9],0.95 µmol/L/h
same,Sodium oleate gain ABG,[3]; [10],159%
same,Enzyme Activity ABG,[3]; [11],5.44 µmol/L/h
same,Sodium oleate gain ABG,[3]; [12],175%
same,Sodium oleate gain of Med/Low ratio ABG,[3]; [13],120%
same,"widening of the gap between Low Control DBS and Medium Control DBS, ABG",[3]; [14],approximately 25%
same,enzyme activity ABG when sodium oleate was present,[3]; [15],improved
same,CDC Med/Low Control DBS activity ratio ABG,[3]; with sodium oleate,5.8
same,Enzyme Activity ASM,[4]; [7],2.54 µmol/L/h
same,Sodium oleate gain ASM,[4]; [8],117%
same,Enzyme Activity ASM,[4]; [9],0.16 µmol/L/h
same,Sodium oleate gain ASM,[4]; [10],95%
same,Enzyme Activity ASM,[4]; [11],1.29 µmol/L/h
same,Sodium oleate gain ASM,[4]; [12],122%
same,Sodium oleate gain of Med/Low ratio ASM,[4]; [13],136%
same,"widening of the gap between Low Control DBS and Medium Control DBS, ASM",[4]; [14],approximately 25%
same,enzyme activity ASM when sodium oleate was present,[4]; [15],improved
same,CDC Med/Low Control DBS activity ratio ASM,[4]; with sodium oleate,8.0
same,Enzyme Activity IDUA,α-L-iduronidase (IDUA); [7],11.95 µmol/L/h
same,Sodium oleate gain IDUA,α-L-iduronidase (IDUA); [8],111%
same,Enzyme Activity IDUA,α-L-iduronidase (IDUA); [9],0.72 µmol/L/h
same,Sodium oleate gain IDUA,α-L-iduronidase (IDUA); [10],107%
same,Enzyme Activity IDUA,α-L-iduronidase (IDUA); [11],5.86 µmol/L/h
same,Sodium oleate gain IDUA,α-L-iduronidase (IDUA); [12],116%
same,Sodium oleate gain of Med/Low ratio IDUA,α-L-iduronidase (IDUA); [13],114%
same,CDC Med/Low Control DBS activity ratio IDUA,α-L-iduronidase (IDUA); with sodium oleate,8.1
same,Enzyme Activity GLA,[5]; [7],13.15 µmol/L/h
same,Sodium oleate gain GLA,[5]; [8],104%
same,Enzyme Activity GLA,[5]; [9],1.00 µmol/L/h
same,Sodium oleate gain GLA,[5]; [10],95%
same,Enzyme Activity GLA,[5]; [11],6.57 µmol/L/h
same,Sodium oleate gain GLA,[5]; [12],106%
same,Sodium oleate gain of Med/Low ratio GLA,[5]; [13],114%
same,CDC Med/Low Control DBS activity ratio GLA,[5]; with sodium oleate,6.5
same,Enzyme Activity GALC,[6]; [7],6.72 µmol/L/h
same,Sodium oleate gain GALC,[6]; [8],126%
same,Enzyme Activity GALC,[6]; [9],0.45 µmol/L/h
same,Sodium oleate gain GALC,[6]; [10],118%
same,Enzyme Activity GALC,[6]; [11],3.22 µmol/L/h
same,Sodium oleate gain GALC,[6]; [12],133%
same,Sodium oleate gain of Med/Low ratio GALC,[6]; [13],117%
same,"widening of the gap between Low Control DBS and Medium Control DBS, GALC",[6]; [14],approximately 25%
same,enzyme activity GALC when sodium oleate was present,[6]; [15],improved
same,CDC Med/Low Control DBS activity ratio GALC,[6]; with sodium oleate,7.1
same,Enzyme Activity GAA,acid α-glucosidase (GAA); [7],13.48 µmol/L/h
same,Sodium oleate gain GAA,acid α-glucosidase (GAA); [8],110%
same,Enzyme Activity GAA,acid α-glucosidase (GAA); [9],0.99 µmol/L/h
same,Sodium oleate gain GAA,acid α-glucosidase (GAA); [10],105%
same,Enzyme Activity GAA,acid α-glucosidase (GAA); [11],7.08 µmol/L/h
same,Sodium oleate gain GAA,acid α-glucosidase (GAA); [12],115%
same,Sodium oleate gain of Med/Low ratio GAA,acid α-glucosidase (GAA); [13],115%
same,CDC Med/Low Control DBS activity ratio GAA,acid α-glucosidase (GAA); with sodium oleate,7.2
